The source made the active and inactive calls.
Tests used:
[1] = biological target: Induced myeloid leukemia cell differentiation protein Mcl-1 (Homo sapiens, UniProt Q07820); assay type: functional
Genome polyprotein = Genome polyprotein (dengue virus type 2, UniProt P29990); test: flavivirus cap methylation enzyme inhibition – biochemical, confirmation dose response, primary screen (AID 588689); assay type: functional
[2] = biological target: T1, Mannose-6-phosphate isomerase (Homo sapiens, UniProt P34949); test: MPI inhibition at elevated mannose 6-phosphate – biochemical, fluorescence intensity, high mannose 6-phosphate, primary screen (AID 1220)
T1 sequence (P34949 whole entry): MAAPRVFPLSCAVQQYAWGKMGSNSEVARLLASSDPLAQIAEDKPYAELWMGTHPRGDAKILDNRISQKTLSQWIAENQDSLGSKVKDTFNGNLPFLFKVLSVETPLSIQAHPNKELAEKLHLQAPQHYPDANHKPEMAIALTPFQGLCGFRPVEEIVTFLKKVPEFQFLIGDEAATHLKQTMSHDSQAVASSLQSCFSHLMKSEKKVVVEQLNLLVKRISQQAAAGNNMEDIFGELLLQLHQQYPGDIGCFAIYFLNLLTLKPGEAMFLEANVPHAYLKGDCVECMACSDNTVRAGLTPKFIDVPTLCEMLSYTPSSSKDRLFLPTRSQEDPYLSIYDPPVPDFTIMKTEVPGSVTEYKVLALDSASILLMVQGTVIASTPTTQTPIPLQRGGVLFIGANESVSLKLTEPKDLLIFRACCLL

[3] = biological target: T2, RNA-binding protein pos-1 (Caenorhabditis elegans, UniProt G5EF15); test: disruptors of C. elegans POS-1 RNA interaction – biochemical, fluorescence polarization, dose response (AID 1964);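 note: purified POS-1 fused to maltose binding protein made in E. coli; potency of compounds blocking POS-1 binding to fluorescent RNA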
T2 sequence (G5EF15 whole entry): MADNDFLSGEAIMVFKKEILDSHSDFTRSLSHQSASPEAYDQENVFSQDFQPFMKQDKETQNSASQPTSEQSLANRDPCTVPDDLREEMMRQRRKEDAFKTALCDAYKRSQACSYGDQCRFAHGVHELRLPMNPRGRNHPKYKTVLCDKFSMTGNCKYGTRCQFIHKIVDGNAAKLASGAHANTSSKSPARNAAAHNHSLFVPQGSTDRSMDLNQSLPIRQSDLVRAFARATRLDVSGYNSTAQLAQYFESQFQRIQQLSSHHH

[4] = biological target: T3, Zinc finger protein mex-5 (Caenorhabditis elegans, UniProt Q9XUB2); test: potency of MEX-5 RNA-binding blockers – biochemical, C. elegans, fluorescence polarization, dose response (AID 1960)
T3 sequence (Q9XUB2 whole entry): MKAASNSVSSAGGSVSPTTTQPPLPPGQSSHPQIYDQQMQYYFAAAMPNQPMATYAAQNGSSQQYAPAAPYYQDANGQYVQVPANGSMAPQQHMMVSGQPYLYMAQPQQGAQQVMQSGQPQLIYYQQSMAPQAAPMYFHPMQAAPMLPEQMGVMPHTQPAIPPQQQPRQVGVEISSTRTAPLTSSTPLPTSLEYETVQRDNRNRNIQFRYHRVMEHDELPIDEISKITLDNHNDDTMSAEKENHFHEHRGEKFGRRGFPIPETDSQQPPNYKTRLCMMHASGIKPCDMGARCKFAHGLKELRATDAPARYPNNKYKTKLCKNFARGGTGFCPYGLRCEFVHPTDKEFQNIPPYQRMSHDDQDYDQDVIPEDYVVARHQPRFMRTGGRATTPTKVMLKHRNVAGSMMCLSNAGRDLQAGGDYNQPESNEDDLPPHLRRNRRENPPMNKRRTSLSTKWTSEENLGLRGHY

[5] = biological target: T4, Replicative DNA helicase DnaB (Mycobacterium tuberculosis, UniProt P9WMR3); test: DnaB intein splicing inhibitors, dose response, biochemical, cell-free fluorescence (AID 449749); assay type: functional
T4 sequence (P9WMR3 whole entry): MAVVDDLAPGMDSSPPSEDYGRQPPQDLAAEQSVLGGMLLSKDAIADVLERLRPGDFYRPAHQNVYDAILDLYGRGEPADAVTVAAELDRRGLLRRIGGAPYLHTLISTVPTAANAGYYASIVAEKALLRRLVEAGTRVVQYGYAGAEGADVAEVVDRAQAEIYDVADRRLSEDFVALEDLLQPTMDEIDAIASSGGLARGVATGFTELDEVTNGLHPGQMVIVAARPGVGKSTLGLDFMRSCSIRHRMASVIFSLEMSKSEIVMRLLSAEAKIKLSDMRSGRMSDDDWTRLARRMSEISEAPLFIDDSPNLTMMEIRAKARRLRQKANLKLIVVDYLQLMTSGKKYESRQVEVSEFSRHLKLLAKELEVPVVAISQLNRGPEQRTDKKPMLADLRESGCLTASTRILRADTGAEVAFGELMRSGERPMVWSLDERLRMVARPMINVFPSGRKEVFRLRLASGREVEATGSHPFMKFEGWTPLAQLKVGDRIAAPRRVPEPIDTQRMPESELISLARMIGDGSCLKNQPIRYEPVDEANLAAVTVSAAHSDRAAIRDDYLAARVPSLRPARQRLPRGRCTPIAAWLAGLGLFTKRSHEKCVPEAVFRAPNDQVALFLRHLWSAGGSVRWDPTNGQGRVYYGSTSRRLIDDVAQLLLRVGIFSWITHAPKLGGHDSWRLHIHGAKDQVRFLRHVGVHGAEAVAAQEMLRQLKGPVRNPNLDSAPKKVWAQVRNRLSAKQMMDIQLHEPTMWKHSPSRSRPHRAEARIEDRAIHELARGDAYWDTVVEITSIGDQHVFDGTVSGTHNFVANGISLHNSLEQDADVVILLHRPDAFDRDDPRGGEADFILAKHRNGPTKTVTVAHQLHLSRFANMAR

Induced myeloid leukemia cell differentiation protein Mcl-1, sequence (Q07820 whole entry): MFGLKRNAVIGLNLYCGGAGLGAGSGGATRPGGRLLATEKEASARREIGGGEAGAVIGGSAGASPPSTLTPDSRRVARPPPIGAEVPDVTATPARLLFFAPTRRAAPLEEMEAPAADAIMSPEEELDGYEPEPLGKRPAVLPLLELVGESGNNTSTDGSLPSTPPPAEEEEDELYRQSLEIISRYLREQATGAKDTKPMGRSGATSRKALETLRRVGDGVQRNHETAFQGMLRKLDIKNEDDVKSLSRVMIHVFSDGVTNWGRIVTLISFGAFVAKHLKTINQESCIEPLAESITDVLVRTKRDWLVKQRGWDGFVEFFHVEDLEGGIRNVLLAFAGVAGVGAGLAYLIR
Genome polyprotein, sequence (P29990 2492-3391 limits assumed): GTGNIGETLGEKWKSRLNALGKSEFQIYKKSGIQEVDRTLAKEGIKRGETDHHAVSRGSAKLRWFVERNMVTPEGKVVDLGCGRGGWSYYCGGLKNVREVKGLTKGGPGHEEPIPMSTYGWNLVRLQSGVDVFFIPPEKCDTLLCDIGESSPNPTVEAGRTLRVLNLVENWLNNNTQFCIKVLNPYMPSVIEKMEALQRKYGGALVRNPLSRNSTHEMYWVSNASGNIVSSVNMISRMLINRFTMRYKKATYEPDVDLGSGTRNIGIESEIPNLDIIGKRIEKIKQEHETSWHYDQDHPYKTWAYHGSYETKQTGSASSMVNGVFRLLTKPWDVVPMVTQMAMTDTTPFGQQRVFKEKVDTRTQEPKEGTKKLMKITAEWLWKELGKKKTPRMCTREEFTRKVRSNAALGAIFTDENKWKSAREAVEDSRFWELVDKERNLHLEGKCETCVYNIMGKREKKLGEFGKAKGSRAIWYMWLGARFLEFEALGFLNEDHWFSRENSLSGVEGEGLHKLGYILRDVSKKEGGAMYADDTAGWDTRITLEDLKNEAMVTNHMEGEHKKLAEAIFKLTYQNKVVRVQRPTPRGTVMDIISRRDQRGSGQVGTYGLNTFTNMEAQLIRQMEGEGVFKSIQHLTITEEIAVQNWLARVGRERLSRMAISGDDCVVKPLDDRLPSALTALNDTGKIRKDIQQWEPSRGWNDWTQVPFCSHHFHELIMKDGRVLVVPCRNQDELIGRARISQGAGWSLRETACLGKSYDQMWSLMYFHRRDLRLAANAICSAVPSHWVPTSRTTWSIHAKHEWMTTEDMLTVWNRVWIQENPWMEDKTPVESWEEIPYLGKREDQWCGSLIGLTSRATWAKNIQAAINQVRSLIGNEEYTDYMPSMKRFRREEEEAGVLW

| Compound | IC50 [1] | IC50 (Genome polyprotein) | IC50 [2] | EC50 [3] | EC50 [4] | AC50 [5] |
| --- | --- | --- | --- | --- | --- | --- |
| O=C(O)c1cc(N2N=C(C(F)(F)F)/C(=C/C=C/c3ccco3)C2=O)ccc1Cl | 4.69 µM (active) | 24.2 µM (active) | > 50 µM (not active) | – | – | – |
| CNCc1ccccc1Sc1ccc(O)c(O)c1 | – | 21.2 µM (active) | 25.9 µM (active) | 34.8 µM (active) | 22.6 µM (inconclusive) | > 120 µM (inactive) |
| Cc1cc(C)c(S(=O)(=O)Nc2cc(SCC(=O)O)c(O)c3ccccc23)cc1C | 10.5 µM (active) | – | – | > 300 µM (not active) | 38.6 µM (active) | 1.1 µM (active) |
| O=C(/C=C/c1ccco1)NC(=S)Nc1cccc(C(=O)O)c1 | – | – | – | 8.57 µM (active) | 8.73 µM (active) | – |

— ChEMBL document CHEMBL1201862, “PubChem BioAssay data set” (2004)
